Measured values taken from patent publication US8476434B2, “Protein kinase modulators and method of use” (Amgen Inc., priority 2004, dated 2013).

Each molecule was assayed against T1, LCK KD GST (225-509) (Homo sapiens, UniProt P06239) (assay: LCK Homogenous Time Resolved Fluorescent (HTRF) kinase assay).
T1 construct: LCK KD GST (225-509); GST
Format: biochemical
Protocol: The LCK HTRF assay begins with LCK in the presence of ATP phosphorylating the biotinylated peptide Gastrin. The reaction incubates for 90 min. To quench the assay detection reagents are added which both stop the reaction by diluting out the enzyme and chelating the metals due to the presence of EDTA. Once the detection reagents are added the assay incubates for 30 min to allow for equilibration of the detection reagents.
Buffer conditions are as follows: 50 mM HEPES pH 7.5, 50 mM NaCl, 20 mM MgCl, 5 mM MnCl, 2 mM DTT, 0.05% BSA.
The assay is quenched and stopped with 160 μL of detection reagent. Detection reagents are as follows: Buffer made of 50 mM Tris, pH 7.5, 100 mM NaCl, 3 mM EDTA, 0.05% BSA, 0.1% Tween20.
The assay plate is read in either a Discovery or a RubyStar.

T1 sequence (P06239 225-509): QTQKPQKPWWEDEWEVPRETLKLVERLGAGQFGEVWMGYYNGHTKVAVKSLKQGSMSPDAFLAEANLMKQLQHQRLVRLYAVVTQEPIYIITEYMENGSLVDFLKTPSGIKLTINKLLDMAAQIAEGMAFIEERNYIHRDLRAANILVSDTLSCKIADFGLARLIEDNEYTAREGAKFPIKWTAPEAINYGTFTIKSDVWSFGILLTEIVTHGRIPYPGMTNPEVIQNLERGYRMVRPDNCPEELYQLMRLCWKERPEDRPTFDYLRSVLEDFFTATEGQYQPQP

SMILES | IC50
CNc1nccc(-c2cc(N3CCOCC3)cnc2Oc2cc(C(=O)Nc3cccc(C(C)C)c3)ccc2C)n1 [4-methyl-3-((3-(2-(methylamino)-4-pyrimidinyl)-5-(4-morpholinyl)-2-pyridinyl)oxy)-N-(3-(1-methylethyl)phenyl)benzamide] | < 1000 nM
CNc1ncnc(-c2cccnc2Oc2cc(C(=O)Nc3cccc(C(C)C)c3)ccc2C)n1 [4-methyl-3-((3-(4-(methylamino)-1,3,5-triazin-2-yl)-2-pyridinyl)oxy)-N-(3-(1-methylethyl)phenyl)benzamide] | < 1000 nM
CNc1nccc(-c2cccnc2Oc2ccc(NC(=O)Nc3cc(C(F)(F)F)ccc3Cl)cc2C)n1 [N-(2-chloro-5-(trifluoromethyl)phenyl)-N′-(3-methyl-4-((3-(2-(methylamino)-4-pyrimidinyl)-2-pyridinyl)oxy)phenyl)urea] | < 1000 nM
CCNc1ncnc(-c2cccnc2Oc2cc(C(=O)Nc3cccc(C(C)C)c3)ccc2C)n1 [3-((3-(4-(ethylamino)-1,3,5-triazin-2-yl)-2-pyridinyl)oxy)-4-methyl-N-(3-(1-methylethyl)phenyl)benzamide] | < 1000 nM
COc1ccc(C2CCCCC2)cc1NC(=O)c1ccc(C)c(Oc2ncccc2-c2ccncn2)c1 [N-(5-cyclohexyl-2-(methyloxy)phenyl)-4-methyl-3-((3-(4-pyrimidinyl)-2-pyridinyl)oxy)benzamide] | < 1000 nM
CNc1ncnc(-c2cccnc2Oc2ccc(F)c(C(=O)Nc3cc(C(F)(F)F)ccc3N(C)CCCN(C)C)c2)n1 [N-(2-((3-(dimethylamino)propyl)(methyl)amino)-5-(trifluoromethyl)phenyl)-2-fluoro-5-((3-(4-(methylamino)-1,3,5-triazin-2-yl)-2-pyridinyl)oxy)benzamide] | < 1000 nM
C#Cc1cc(Oc2ncccc2-c2ccnc(NC)n2)cc(C(=O)Nc2cccc(C(F)(F)F)c2)c1 [3-ethynyl-5-((3-(2-(methylamino)-4-pyrimidinyl)-2-pyridinyl)oxy)-N-(3-(trifluoromethyl)phenyl)benzamide] | < 1000 nM
CNc1nccc(-c2cccnc2Oc2ccc(NC(=O)Nc3cccc(Br)c3)cc2C)n1 [N-(3-bromophenyl)-N′-(3-methyl-4-((3-(2-(methylamino)-4-pyrimidinyl)-2-pyridinyl)oxy)phenyl)urea] | < 1000 nM
CNc1cc(-c2cccnc2Oc2cc(C(=O)Nc3cc(C(F)(F)F)ccc3N(C)CCCN(C)C)ccc2C)ccn1 [N-(2-((3-(dimethylamino)propyl)(methyl)amino)-5-(trifluoromethyl)phenyl)-4-methyl-3-((2′-(methylamino)-3,4′-bipyridin-2-yl)oxy)benzamide] | < 1000 nM
C#Cc1ccc(N(C)CCCN(C)C)c(NC(=O)c2cc(Oc3ncccc3-c3ccnc(NC)n3)ccc2F)c1 [N-(2-((3-(dimethylamino)propyl)(methyl)amino)-5-ethynylphenyl)-2-fluoro-5-((3-(2-(methylamino)-4-pyrimidinyl)-2-pyridinyl)oxy)benzamide] | < 1000 nM
CNc1ncnc(-c2cccnc2Oc2cc(C(=O)Nc3cccc(OCc4ccccc4)c3)ccc2C)n1 [4-methyl-3-((3-(4-(methylamino)-1,3,5-triazin-2-yl)-2-pyridinyl)oxy)-N-(3-((phenylmethyl)oxy)phenyl)benzamide] | < 1000 nM
CNc1nccc(-c2cccnc2Oc2ccc(NC(=O)Nc3cc(Cl)ccc3Cl)cc2C)n1 [N-(2,5-dichlorophenyl)-N′-(3-methyl-4-((3-(2-(methylamino)-4-pyrimidinyl)-2-pyridinyl)oxy)phenyl)urea] | < 1000 nM
CNc1nccc(-c2cccnc2Oc2cc(NC(=O)c3cc(C(C)(C)C)ccc3OC)ccc2C)n1 [5-(1,1-dimethylethyl)-N-(4-methyl-3-((3-(2-(methylamino)-4-pyrimidinyl)-2-pyridinyl)oxy)phenyl)-2-(methyloxy)benzamide] | < 1000 nM
Cc1ccc(C(=O)Nc2cc(C(C)(C)C)nn2-c2ccccc2)cc1Oc1ncccc1-c1ccncn1 [N-(3-(1,1-dimethylethyl)-1-phenyl-1H-pyrazol-5-yl)-4-methyl-3-((3-(4-pyrimidinyl)-2-pyridinyl)oxy)benzamide] | < 1000 nM
CNc1ncnc(-c2cccnc2Oc2ccc(F)c(C(=O)Nc3cccc(C(C)(C)C)c3)c2)n1 [N-(3-(1,1-dimethylethyl)phenyl)-2-fluoro-5-((3-(4-(methylamino)-1,3,5-triazin-2-yl)-2-pyridinyl)oxy)benzamide] | < 1000 nM
CNc1ncnc(-c2cccnc2Oc2cc(C(=O)Nc3cc(C(F)(F)F)ccc3Cl)ccc2C)n1 [N-(2-chloro-5-(trifluoromethyl)phenyl)-4-methyl-3-((3-(4-(methylamino)-1,3,5-triazin-2-yl)-2-pyridinyl)oxy)benzamide] | < 1000 nM
CNc1nccc(-c2cccnc2Oc2cc(C(=O)Nc3cc(C(F)(F)F)ccc3N(C)C3CCN(C)CC3)c(F)cc2C)n1 [2-fluoro-4-methyl-5-((3-(2-(methylamino)-4-pyrimidinyl)-2-pyridinyl)oxy)-N-(2-(methyl(1-methyl-4-piperidinyl)amino)-5-(trifluoromethyl)phenyl)benzamide] | < 1000 nM
CNc1nccc(-c2cccnc2Oc2cccc(C(=O)Nc3cccc(C(C)C)c3)c2)n1 [3-((3-(2-(methylamino)-4-pyrimidinyl)-2-pyridinyl)oxy)-N-(3-(1-methylethyl)phenyl)benzamide] | < 1000 nM
CNc1nccc(-c2cccnc2Oc2cc(C(=O)Nc3cc(C(F)(F)F)ccc3N3CC[C@H](N(C)C)C3)ccc2C)n1 [N-(2-((3S)-3-(dimethylamino)-1-pyrrolidinyl)-5-(trifluoromethyl)phenyl)-4-methyl-3-((3-(2-(methylamino)-4-pyrimidinyl)-2-pyridinyl)oxy)benzamide] | < 1000 nM
CNc1ncnc(-c2cccnc2Oc2ccc(NC(=O)Nc3cc(C(F)(F)F)ccc3CN3CC[C@@H](N(C)C)C3)c3ccccc23)n1 [N-(2-(((3R)-3-(dimethylamino)-1-pyrrolidinyl)methyl)-5-(trifluoromethyl)phenyl)-N′-(4-((3-(4-(methylamino)-1,3,5-triazin-2-yl)-2-pyridinyl)oxy)-1-naphthalenyl)urea] | < 1000 nM
CNc1nccc(-c2cc(Cl)cnc2Oc2c(C)cccc2C)n1 [4-(5-chloro-2-((2,6-dimethylphenyl)oxy)-3-pyridinyl)-N-methyl-2-pyrimidinamine] | < 1000 nM
CNc1ncnc(-c2cccnc2Oc2cc(C(=O)Nc3cc(C(F)(F)F)ccc3N3CCCCC3)ccc2C)n1 [4-methyl-3-((3-(4-(methylamino)-1,3,5-triazin-2-yl)-2-pyridinyl)oxy)-N-(2-(1-piperidinyl)-5-(trifluoromethyl)phenyl)benzamide] | < 1000 nM
O=C(Nc1cccc(C(F)(F)F)c1)Nc1ccc(Oc2ncccc2-c2ccncn2)c2ccccc12 [N-(4-((3-(4-pyrimidinyl)-2-pyridinyl)oxy)-1-naphthalenyl)-N′-(3-(trifluoromethyl)phenyl)urea] | < 1000 nM
Cc1ccc(C(=O)Nc2cc(C(F)(F)F)ccc2Cl)cc1Oc1ncccc1-c1ccncn1 [N-(2-chloro-5-(trifluoromethyl)phenyl)-4-methyl-3-((3-(4-pyrimidinyl)-2-pyridinyl)oxy)benzamide] | < 1000 nM
CNc1nccc(-c2cccnc2Oc2cc(C(=O)Nc3cc(C4CCCCC4)ccc3OC)ccc2C)n1 [N-(5-cyclohexyl-2-(methyloxy)phenyl)-4-methyl-3-((3-(2-(methylamino)-4-pyrimidinyl)-2-pyridinyl)oxy)benzamide] | < 1000 nM
CNc1ncnc(-c2cccnc2Oc2cc(C(=O)Nc3cccc(C(F)(F)F)c3)ccc2C)n1 [4-methyl-3-((3-(4-(methylamino)-1,3,5-triazin-2-yl)-2-pyridinyl)oxy)-N-(3-(trifluoromethyl)phenyl)benzamide] | < 1000 nM
CNc1nccc(-c2cccnc2Oc2cccc(NC(=O)c3cc(C(C)(C)C)ccc3OC)c2)n1 [5-(1,1-dimethylethyl)-N-(3-((3-(2-(methylamino)-4-pyrimidinyl)-2-pyridinyl)oxy)phenyl)-2-(methyloxy)benzamide] | < 1000 nM
CC(C)c1cccc(NC(=O)c2cccc(Nc3ncccc3-c3ncnc(N)n3)c2)c1 [3-((3-(4-amino-1,3,5-triazin-2-yl)-2-pyridinyl)amino)-N-(3-(1-methylethyl)phenyl)benzamide] | < 1000 nM
CNc1nccc(-c2cccnc2Oc2cc(C(=O)Nc3cc(C(F)(F)F)ccc3N(C)CCCN(C)C)ccc2C)n1 [N-(2-((3-(dimethylamino)propyl)(methyl)amino)-5-(trifluoromethyl)phenyl)-4-methyl-3-((3-(2-(methylamino)-4-pyrimidinyl)-2-pyridinyl)oxy)benzamide] | < 1000 nM
CNc1nccc(-c2cccnc2Oc2ccc(NC(=O)Nc3cccc(F)c3)cc2C)n1 [N-(3-fluorophenyl)-N′-(3-methyl-4-((3-(2-(methylamino)-4-pyrimidinyl)-2-pyridinyl)oxy)phenyl)urea] | < 1000 nM
